Earlier results, collected in PubChem BioAssay AID1259409 (Chemical Carcinogenesis Research Information System (CCRIS), 2018).

Tested on: rodent chemically induced tumor inhibition, incidence and multiplicity
Test: CCRIS tumor inhibitor studies

## CC(C)C(NC(=O)[C@@H]1CCCN1C(=O)[C@@H](NC(=O)c1ccc(C(=O)NS(=O)(=O)c2ccc(Br)cc2)cc1)C(C)C)C(=O)C(F)(F)F (stereo partly specified)
Carcinogen: UV-B IRRADIATION, Dose [Inhibitor]: 0, 125 UG IN DMSO ADMINISTERED IMMEDIATELY PRIOR TO UV-B IRRADIATION AND 4 AND 24 HR POST IRRADIATION, CYCLE REPEATED 3/, Route [Inhibitor]: SUBCUTANEOUS, Species: MOUSE, Strain/Sex: SKH-1/FEMALE, Target Tissue: Type of Lesion: SKIN: CARCINOMA, Dose [Carcinogen]: 0.09 J/CM2 3/WK, Promoter: NONE USED
  tumour outcome (control, treated, inhibition, significance): 5/5 (100%), 2/5 (40%), 60%, not calculated
Carcinogen: UV-B IRRADIATION, Dose [Inhibitor]: 0, 125 UG IN DMSO ADMINISTERED IMMEDIATELY PRIOR TO UV-B IRRADIATION AND 4 AND 24 HR POST IRRADIATION, CYCLE REPEATED 3/, Route [Inhibitor]: SUBCUTANEOUS, Species: MOUSE, Strain/Sex: SKH-1/FEMALE, Target Tissue: Type of Lesion: SKIN: PAPILLOMA, Dose [Carcinogen]: 0.09 J/CM2 3/WK, Promoter: NONE USED
  tumour outcome (control, treated, inhibition, significance): 5/5 (100%), 3/5 (60%), 40%, not calculated

## O=C(O[C@@H]1Cc2c(O)cc(O)cc2O[C@@H]1c1cc(O)c(O)c(O)c1)c1cc(O)c(O)c(O)c1
Carcinogen: 4-(METHYLNITROSAMINO)-1-(3-PYRIDYL)-1-BUTANONE, 64091-91-4, Dose [Inhibitor]: 0, 560 PPM IN DRINKING WATER FOR 13 WK BEGINNING 2 WK PRIOR TO CARCINOGEN TREATMENT (STUDY DURATION: 18 WK), Route [Inhibitor]: ORAL, Species: MOUSE, Strain/Sex: STRAIN-A/FEMALE, Target Tissue: Type of Lesion: LUNG: ADENOMA, Dose [Carcinogen]: 11.65 MG/KG 3/WK FOR 10 WK, Promoter: NONE USED
  tumour outcome (control, treated, inhibition, significance): 100%, 100%, 0%, not significant
Carcinogen: 4-NITROQUINOLINE-N-OXIDE (56-57-5), Dose [Inhibitor]: 0.05% IN DIET FOR 25 WKS (STUDY DURATION: 25 WKS), Route [Inhibitor]: DIET, Species: MOUSE, Strain/Sex: DDY/MALE (10,10)/(10,?), Target Tissue: Type of Lesion: LUNG, Dose [Carcinogen]: 10 MG/KG BW ONCE, Promoter: CACODYLIC ACID (75-60-5)
  tumour outcome (control, treated, inhibition, significance): 100%, 70%, 30%, not calculated
Carcinogen: 7,12-DIMETHYLBENZ[A]ANTHRACENE, 57-97-6, Dose [Inhibitor]: 0, 0.5% (81% EGCG) IN DIET OF RATS WITH TUMORS AT 13 WK POST CARCINOGEN DOSE (STUDY DURATION: 36 WK), Route [Inhibitor]: ORAL, Species: RAT, Strain/Sex: SPRAGUE-DAWLEY/FEMALE, Target Tissue: Type of Lesion: MAMMARY GLAND: CARCINOMA, Dose [Carcinogen]: 50 MG/KG BW ONCE, Promoter: NONE USED
  tumour outcome (control, treated, inhibition, significance): 14/14 (100%), 14/14 (100%), 0%, not significant
Carcinogen: 7,12-DIMETHYLBENZ[A]ANTHRACENE, 57-97-6, Dose [Inhibitor]: 0, 0.5% (81% EGCG) IN DIET OF RATS WITHOUT TUMORS AT 13 WK POST CARCINOGEN DOSE (STUDY DURATION: 36 WK), Route [Inhibitor]: ORAL, Species: RAT, Strain/Sex: SPRAGUE-DAWLEY/FEMALE, Target Tissue: Type of Lesion: MAMMARY GLAND: CARCINOMA, Dose [Carcinogen]: 50 MG/KG BW ONCE, Promoter: NONE USED
  tumour outcome (control, treated, inhibition, significance): 11/14 (79%), 12/14 (86%), -9%, not significant
Carcinogen: 7,12-DIMETHYLBENZ[A]ANTHRACENE, 57-97-6, Dose [Inhibitor]: 0, 0.5% POLYPHEN E (58.4% EGCG) IN DIET OF RATS WITH TUMORS AT 13 WK POST CARCINOGEN DOSE (STUDY DURATION: 36 WK), Route [Inhibitor]: ORAL, Species: RAT, Strain/Sex: SPRAGUE-DAWLEY/FEMALE, Target Tissue: Type of Lesion: MAMMARY GLAND: CARCINOMA, Dose [Carcinogen]: 50 MG/KG BW ONCE, Promoter: NONE USED
  tumour outcome (control, treated, inhibition, significance): 14/14 (100%), 14/14 (100%), 0%, not significant
Carcinogen: 7,12-DIMETHYLBENZ[A]ANTHRACENE, 57-97-6, Dose [Inhibitor]: 0, 5 UMOL IN 0.2 ML ACETONE 1/D FOR 7 D PRIOR TO CARCINOGEN DOSE (STUDY DURATION: 16 WK), Route [Inhibitor]: DERMAL, Species: MOUSE, Strain/Sex: SENCAR/FEMALE, Target Tissue: Type of Lesion: SKIN: TUMOR, Dose [Carcinogen]: 10 NMOL IN 0.2 ML ACETONE ONCE, Promoter: 12-O-TETRADECANOYLPHORBOL-13-ACETATE, 16561-29-8
  tumour outcome (control, treated, inhibition, significance): 100%, 100%, 0%, not significant
Carcinogen: N-ETHYL-N'-NITRO-N-NITROSGUANIDINE, 4245-77-6, Dose [Inhibitor]: 0, 0.005% IN DIET FOR 12 WK BEGINNING POST CARCINOGEN TREATMENT (STUDY DURATION: 16 WK), Route [Inhibitor]: ORAL, Species: MOUSE, Strain/Sex: C57BL/MALE, Target Tissue: Type of Lesion: DUODENUM: TUMOR, Dose [Carcinogen]: 100 MG/L IN DRINKING WATER FOR 4 WK, Promoter: NONE USED
  tumour outcome (control, treated, inhibition, significance): 63%, 20%, 68%, p<0.001
Carcinogen: N-ETHYL-N'-NITRO-N-NITROSOGUANIDINE, 4245-77-6, Dose [Inhibitor]: 0, 0.005% IN DIET FOR 12 WK BEGINNING POST CARCINOGEN TREATMENT (STUDY DURATION: 16 WK), Route [Inhibitor]: ORAL, Species: MOUSE, Strain/Sex: C57BL/MALE, Target Tissue: Type of Lesion: DUODENUM: TUMOR, Dose [Carcinogen]: 100 MG/L IN DRINKING WATER FOR 4 WK, Promoter: NONE USED
  tumour outcome (control, treated, inhibition, significance): 63%, 20%, 68%, p<0.001
Carcinogen: N-ETHYL-N'-NITRO-N-NITROSOGUANIDINE, 4245-77-6, Dose [Inhibitor]: 0.005% (0.15 MG/MOUSE/D) IN DRINKING WATER FOR 12 WK POST CARCINOGEN DOSE (STUDY DURATION: 16 WK), Route [Inhibitor]: ORAL, Species: MOUSE, Strain/Sex: C57BL/MALE, Target Tissue: Type of Lesion: DUODENUM: TUMOR, Dose [Carcinogen]: 100 MG/L DRINKING WATER FOR 4 WK, Promoter: NONE USED
  tumour outcome (control, treated, inhibition, significance): 10/16 (63%), 3/15 (20%), 68%, p<0.001
Carcinogen: N-METHYL-N'-NITRO-N-NITROSOGUANIDINE, 70-25-7, Dose [Inhibitor]: 0, 0.05% IN DIET FOR 16 WK BEGINNING POST CARCINOGEN TREATMENT (STUDY DURATION: 44 WK), Route [Inhibitor]: ORAL, Species: RAT, Strain/Sex: WISTAR/MALE, Target Tissue: Type of Lesion: STOMACH: TUMOR, Dose [Carcinogen]: 80 MG/L IN DRINKING WATER FOR 28 WK, Promoter: NONE USED
  tumour outcome (control, treated, inhibition, significance): 62%, 31%, 50%, p<0.05
Carcinogen: N-METHYL-N'-NITRO-N-NITROSOGUANIDINE, 70-25-7, Dose [Inhibitor]: 0, 0.05% IN DRINKING WATER FOR 15 WK (STUDY DURATION: 44 WK), Route [Inhibitor]: ORAL, Species: RAT, Strain/Sex: WISTAR/MALE, Target Tissue: Type of Lesion: GLANDULAR STOMACH: TUMOR, Dose [Carcinogen]: 80 MG/L IN DRINKING WATER FOR 28 WK, Promoter: NONE USED
  tumour outcome (control, treated, inhibition, significance): 21/34 (62%), 11/35 (31%), 50%, p<0.05
Carcinogen: N-METHYL-N'-NITRO-N-NITROSOGUANIDINE, 70-25-7, Dose [Inhibitor]: 0, 0.05% IN DRINKING WATER FOR 15 WK BEGINNING POST CARCINOGEN TREATMENT (STUDY DURATION: 44 WK), Route [Inhibitor]: ORAL, Species: RAT, Strain/Sex: WISTAR/MALE, Target Tissue: Type of Lesion: GLANDULAR STOMACH: TUMOR, Dose [Carcinogen]: 80 MG/L IN DRINKING WATER FOR 28 WK, Promoter: NONE USED
  tumour outcome (control, treated, inhibition, significance): 21/34 (62%), 11/35 (31%), 50%, p<0.05
Carcinogen: NONE USED, Dose [Inhibitor]: 0, 0.05% IN DRINKING WATER AD LIBITUM FOR 58 WK (STUDY DURATION: 65 WK), Route [Inhibitor]: ORAL, Species: MOUSE, Strain/Sex: C3H/HENCRJ/MALE, Target Tissue: Type of Lesion: LIVER: HEPATOMA, Promoter: NONE USED
  tumour outcome (control, treated, inhibition, significance): 15/18 (83%), 14/25 (56%), 33%, p<0.05
Carcinogen: NONE USED, Dose [Inhibitor]: 0, 0.1% IN DRINKING WATER AD LIBITUM FOR 58 WK (STUDY DURATION: 65 WK), Route [Inhibitor]: ORAL, Species: MOUSE, Strain/Sex: C3H/HENCRJ/MALE, Target Tissue: Type of Lesion: LIVER: HEPATOMA, Promoter: NONE USED
  tumour outcome (control, treated, inhibition, significance): 15/18 (83%), 12/23 (52%), 37%, p<0.05
